Series [1] is described as follows: Specific surface area by Brunauer-Emmett-Teller (B.E.T.) nitrogen absorption. The class given is physicochemical. To be noted: crystal particles, measured by B.E.T. From the text: Specific surface area is defined in units of square meters per gram (m2/g). It is usually measured by nitrogen absorption analysis. In this analysis, nitrogen is absorbed on the surface of the substance. The amount of the absorbed nitrogen (as measured during the absorption or the subsequent desorption process) is related to the surface area via a formula known as the Brunauer Emmet Teller (B.E.T.) formula.

The nature of series [2]: Particle size distribution by laser diffraction (Malvern Mastersizer). The class given is physicochemical. To be noted: crystal particles obtained by the processes herein described. The source says: As used herein, the phrase, “particle size distribution (PSD)” means the cumulative volume size distribution of equivalent spherical diameters as determined by laser diffraction at 1 bar dispersive pressure in a Sympatec Helos equipment. d10, as used herein is defined as the particle size at which the cumulative percentage undersize is 10 (i.e. the bottom 10% of particles are less than or equal to the stated size). d50 means the median particle size and d90 is defined as the particle size at which the cumulative percentage undersize is 90 (i.e. the bottom 90% of particles are less than or equal to the stated size). The particle size of eslicarbazepine acetate was measured under following conditions. [table] In accordance with the invention, the size distribution of eslicarbazepine acetate particles is determined by laser diffraction. In the present invention, the method in the determination of the size of eslicarbazepine acetate particles employed a Malvern Mastersizer laser diffraction instrument. Samples of the eslicarbazepine acetate were suspended in hexane containing a surfactant, 1% Tween80®. The suspensions were mixed and then sonicated for 120 seconds to thoroughly disperse the eslicarbazepine acetate particles. The dispersion was then circulated in the flow cell of the Malvern Mastersizer for two minutes before particle size measurements were taken.

Structures are written as SMILES.

On to `CC(=O)O[C@H]1Cc2ccccc2N(C(N)=O)c2ccccc21` [eslicarbazepine acetate, (S)-(−)-10-(acetyloxy)-10,11-dihydro-5H-dibenz[b,f]-azepine-5-carboxamide], for which the Specific surface area entry in series [1] was “about 1.37 m^2/g”. In addition, in series [2], the “Particle size distribution d 10” value worked out at 5.421 μm, the “Particle size distribution d 50 (median particle size)” value is recorded as 19.780 μm and the “Particle size distribution d 90” value was 168.686 μm.
